US7932270B2 (Cytokinetics, Inc., priority 2006, dated 2011)

Molecular target: T1, chicken gizzard smooth muscle myosin subfragment-1 chemically crosslinked to cardiac or skeletal actin (Gallus gallus, UniProt P10587)
T1 construct: chicken gizzard smooth muscle myosin subfragment-1; from tissue; host or cells: chicken gizzard
Experiment: Smooth muscle myosin ATPase dose response assay (pyruvate kinase/horseradish peroxidase/pyruvate oxidase-coupled, amplex red fluorescence)
Format: biochemical
Details: read-out: IC50 Arithmetic Mean
How it was run: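 Inhibition is measured in a peroxidase/pyruvate oxidase-linked format at pH 7.00 and 22° C, 0.15 mM ATP final. Myosin input is titrated to a target turnover since active fraction differs between preparations.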

T1 sequence (P02607 2-151): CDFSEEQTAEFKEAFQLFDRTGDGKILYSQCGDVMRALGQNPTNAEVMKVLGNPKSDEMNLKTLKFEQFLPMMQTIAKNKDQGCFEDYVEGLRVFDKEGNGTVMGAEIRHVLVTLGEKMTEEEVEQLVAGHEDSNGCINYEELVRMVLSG
T1 sequence (P10587 84-789): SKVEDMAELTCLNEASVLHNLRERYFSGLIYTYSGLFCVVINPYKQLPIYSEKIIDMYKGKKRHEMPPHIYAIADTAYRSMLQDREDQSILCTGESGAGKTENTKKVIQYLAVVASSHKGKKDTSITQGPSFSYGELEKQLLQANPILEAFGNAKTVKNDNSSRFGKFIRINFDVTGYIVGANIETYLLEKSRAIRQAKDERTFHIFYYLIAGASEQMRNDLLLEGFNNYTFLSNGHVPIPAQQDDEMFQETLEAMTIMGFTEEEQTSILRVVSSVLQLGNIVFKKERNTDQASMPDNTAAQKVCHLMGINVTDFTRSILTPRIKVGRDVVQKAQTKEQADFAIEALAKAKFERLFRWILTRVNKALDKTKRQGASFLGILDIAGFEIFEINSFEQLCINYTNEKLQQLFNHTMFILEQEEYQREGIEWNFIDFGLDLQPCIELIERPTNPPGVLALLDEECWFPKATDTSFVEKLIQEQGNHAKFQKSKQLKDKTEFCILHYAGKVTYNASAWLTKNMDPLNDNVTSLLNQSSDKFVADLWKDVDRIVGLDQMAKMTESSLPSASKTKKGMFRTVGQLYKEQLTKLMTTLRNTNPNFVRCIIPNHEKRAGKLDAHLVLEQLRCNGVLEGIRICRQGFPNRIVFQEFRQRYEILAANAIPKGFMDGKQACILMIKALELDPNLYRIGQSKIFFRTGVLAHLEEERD

IC50 [nM]	Compound
17300	C[C@@H](CNc1nc(-c2ccccc2)ccc1C(=O)NCc1cccnc1)c1ccccc1 [{2-[((2R)-2-phenylpropyl)amino]-6-phenyl(3-pyridyl)}-N-(3-pyridylmethyl)carboxamide]
49	C[C@H](CNC(=O)c1ccc(-c2ccccc2C#N)nc1NCCc1cccc(F)c1)NC(=O)CCCNC(=O)OC(C)(C)C
13600	Cc1ccc(C)c(-c2ccc(C(=O)NCc3cccnc3)c(NCCc3ccccn3)n2)c1 [{6-(2,5-dimethylphenyl)-2-[(2-(2-pyridyl)ethyl)amino](3-pyridyl)}-N-(3-pyridylmethyl)carboxamide]
512	N#Cc1ccccc1-c1ccc(C(=O)NC[C@H]2CCCN(C(=O)CCCN)C2)c(NCCc2cccc(F)c2)n1 [N-{[(3R)-1-(4-aminobutanoyl)(3-piperidyl)]methyl}(6-(2-cyanophenyl)-2-{[2-(3-fluorophenyl)ethyl]amino}(3-pyridyl))carboxamide]
496	NC(=O)CNC(=O)c1ccc(-c2ccc(CO)s2)nc1NCCc1cccc(F)c1 [N-(carbamoylmethyl)(2-{[2-(3-fluorophenyl)ethyl]amino}-6-[5-(hydroxymethyl)(2-thienyl)](3-pyridyl))carboxamide]
73	O=C(NCc1cccnc1)c1ccc(-c2csc(CO)c2)nc1NCCc1cccc(F)c1 [(2-{[2-(3-fluorophenyl)ethyl]amino}-6-[5-(hydroxymethyl)(3-thienyl)](3-pyridyl))-N-(3-pyridylmethyl)carboxamide]
160	CC[C@H](CNC(=O)c1cc(F)c(-c2cn[nH]c2)nc1NCCc1cccc(F)c1)NC(=O)CN [N-((1R)-1-{[(5-fluoro-2-{[2-(3-fluorophenyl)ethyl]amino}-6-pyrazol-4-yl(3-pyridyl))carbonylamino]methyl}propyl)-2-aminoacetamide]
25	N#Cc1ccccc1-c1ccc(C(=O)NC[C@H]2CCN2C(=O)CCCN)c(NCCc2cccc(F)c2)n1 [N-{[(2R)-1-(4-aminobutanoyl)azetidin-2-yl]methyl}(6-(2-cyanophenyl)-2-{[2-(3-fluorophenyl)ethyl]amino}(3-pyridyl))carboxamide]
160	Cn1cc(-c2nc(NCCc3cccc(F)c3)c(C(=O)NC[C@H]3CCC(=O)N3CCCN)cc2Cl)cn1 [N-{[(2R)-1-(3-aminopropyl)-5-oxopyrrolidin-2-yl]methyl}(5-chloro-2-{[2-(3-fluorophenyl)ethyl]amino}-6-(1-methylpyrazol-4-yl)(3-pyridyl))carboxamide]
8180	CN(C)C(=O)[C@@H](N)CNC(=O)c1ccc(-c2ccccc2C#N)nc1NCCc1cccc(F)c1 [(2S)-2-amino-3-[(6-(2-cyanophenyl)-2-{[2-(3-fluorophenyl)ethyl]amino}(3-pyridyl))carbonylamino]-N,N-dimethylpropanamide]
431	N#Cc1ccccc1-c1ccc(C(=O)NC[C@@H]2CCC(=O)N2CCCN)c(NCCc2cccc(F)c2)n1 [N-{[(2S)-1-(3-aminopropyl)-5-oxopyrrolidin-2-yl]methyl}(6-(2-cyanophenyl)-2-{[2-(3-fluorophenyl)ethyl]amino}(3-pyridyl))carboxamide]
7810	O=C(NCc1cccnc1)c1ccc(-c2ccccc2)nc1NCC1(O)CCCCC1 [(2-{[(hydroxycyclohexyl)methyl]amino}-6-phenyl(3-pyridyl))-N-(3-pyridylmethyl)carboxamide]
238	COCCNC(=O)c1ccc(-c2ccccc2C#N)nc1NCCc1cccc(F)c1 [(6-(2-cyanophenyl)-2-{[2-(3-fluorophenyl)ethyl]amino}(3-pyridyl))-N-(2-methoxyethyl)carboxamide]
4220	CN(C)CCNC(=O)c1ccc(-c2ccccc2C#N)nc1NCCc1cccc(F)c1 [N-[2-(dimethylamino)ethyl](6-(2-cyanophenyl)-2-{[2-(3-fluorophenyl)ethyl]amino}(3-pyridyl))carboxamide]
53	C[C@H](N)C(=O)N1CCC[C@@H]1CNC(=O)c1ccc(-c2ccccc2C#N)nc1NCCc1cccc(F)c1 [N-{[(2R)-1-((2S)-2-aminopropanoyl)pyrrolidin-2-yl]methyl}(6-(2-cyanophenyl)-2-{[2-(3-fluorophenyl)ethyl]amino}(3-pyridyl))carboxamide]
604	NCc1cccc(CNC(=O)c2cc(Br)c(-c3ccccc3)nc2NCCc2cccc(F)c2)n1 [N-{[6-(aminomethyl)(2-pyridyl)]methyl}(5-bromo-2-{[2-(3-fluorophenyl)ethyl]amino}-6-phenyl(3-pyridyl))carboxamide]
1320	O=C(NCc1cccnc1)c1ccc(-c2ccccc2F)nc1NCCc1ccccn1 [{6-(2-fluorophenyl)-2-[(2-(2-pyridyl)ethyl)amino](3-pyridyl)}-N-(3-pyridylmethyl)carboxamide]
7070	C[C@H](CNC(=O)c1ccc(-c2ccccc2C#N)nc1NCCc1cccc(F)c1)N(C)S(C)(=O)=O [N-{(2R)-2-[methyl(methylsulfonyl)amino]propyl}(6-(2-cyanophenyl)-2-{[2-(3-fluorophenyl)ethyl]amino}(3-pyridyl))carboxamide]
1450	CS(=O)(=O)N1CCC[C@@H]1CNC(=O)c1ccc(-c2ccccc2C#N)nc1NCCc1cccc(F)c1 [N-{[(2R)-1-(methylsulfonyl)pyrrolidin-2-yl]methyl}(6-(2-cyanophenyl)-2-{[2-(3-fluorophenyl)ethyl]amino}(3-pyridyl))carboxamide]
209	N#Cc1ccccc1-c1ccc(C(=O)NCC(CO)CO)c(NCCc2cccc(F)c2)n1 [(6-(2-cyanophenyl)-2-{[2-(3-fluorophenyl)ethyl]amino}(3-pyridyl))-N-[3-hydroxy-2-(hydroxymethyl)propyl]carboxamide]
32	Cn1ccc(CNC(=O)c2ccc(-c3ccccc3C#N)nc2NCCc2cccc(F)c2)n1 [(6-(2-cyanophenyl)-2-{[2-(3-fluorophenyl)ethyl]amino}(3-pyridyl))-N-[(1-methylpyrazol-3-yl)methyl]carboxamide]
677	Cc1ccc(-c2ccc(C(=O)NCc3cccnc3)c(NCCc3ccccn3)n2)cc1 [{6-(4-methylphenyl)-2-[(2-(2-pyridyl)ethyl)amino](3-pyridyl)}-N-(3-pyridylmethyl)carboxamide]
58	N#Cc1cc(C(=O)NCc2cccnc2CN)c(NCCc2cccc(F)c2)nc1-c1cn[nH]c1 [N-{[2-(aminomethyl)(3-pyridyl)]methyl}(5-cyano-2-{[2-(3-fluorophenyl)ethyl]amino}-6-pyrazol-4-yl(3-pyridyl))carboxamide]
1050	O=C(NCc1cccnc1)c1ccc(-c2ccc(F)cc2)nc1NCCc1ccccn1 [{6-(4-fluorophenyl)-2-[(2-(2-pyridyl)ethyl)amino](3-pyridyl)}-N-(3-pyridylmethyl)carboxamide]
1700	CC(=O)N1CCC(CNC(=O)c2ccc(-c3ccccc3C#N)nc2NCCc2cccc(F)c2)CC1 [N-[(1-acetyl(4-piperidyl))methyl](6-(2-cyanophenyl)-2-{[2-(3-fluorophenyl)ethyl]amino}(3-pyridyl))carboxamide]
603	N#Cc1ccccc1-c1ccc(C(=O)NCc2ncccc2C(F)(F)F)c(NCCc2cccc(F)c2)n1 [(6-(2-cyanophenyl)-2-{[2-(3-fluorophenyl)ethyl]amino}(3-pyridyl))-N-{[3-(trifluoromethyl)(2-pyridyl)]methyl}carboxamide]
274	CNC(=O)[C@@H](CN)NC(=O)c1ccc(-c2ccccc2C#N)nc1NCCc1cccc(F)c1 [(2R)-3-amino-2-[(6-(2-cyanophenyl)-2-{[2-(3-fluorophenyl)ethyl]amino}(3-pyridyl))carbonylamino]-N-methylpropanamide]
13700	N#Cc1ccccc1-c1ccc(C(=O)NCC(CN)C(=O)NCCN)c(NCCc2cccc(F)c2)n1 (stereo not shown) [3-amino-N-(2-aminoethyl)-2-{[(6-(2-cyanophenyl)-2-{[2-(3-fluorophenyl)ethyl]amino}(3-pyridyl))carbonylamino]methyl}propanamide]
4570	N#Cc1ccccc1-c1ccc(C(=O)NC[C@@H]2CCCN2)c(NCCc2cccc(F)c2)n1 [N-[((2S)pyrrolidin-2-yl)methyl](6-(2-cyanophenyl)-2-{[2-(3-fluorophenyl)ethyl]amino}(3-pyridyl))carboxamide]

Compound	IC50 [nM]
CC(C)(C)OC(=O)NCc1ncccc1CNC(=O)c1ccc(-c2ccccc2C#N)nc1NCCc1cccc(F)c1 [N-[(2-{[(tert-butoxy)carbonylamino]methyl}(3-pyridyl))methyl](6-(2-cyanophenyl)-2-{[2-(3-fluorophenyl)ethyl]amino}(3-pyridyl))carboxamide]	1210
Cn1cc(-c2ccc(C(=O)NC[C@H]3CCC(=O)N3CCCNC(=O)OC(C)(C)C)c(NCCc3cccc(F)c3)n2)cn1 [N-[((2R)-1-{3-[(tert-butoxy)carbonylamino]propyl}-5-oxopyrrolidin-2-yl)methyl](2-{[2-(3-fluorophenyl)ethyl]amino}-6-(1-methylpyrazol-4-yl)(3-pyridyl))carboxamide]	1340
Cn1cc(-c2nc(NCCc3cccc(F)c3)c(C(=O)NC[C@H]3CCN3C(=O)CCCNC(=O)OC(C)(C)C)cc2F)cn1 [N-[((2R)-1-{4-[(tert-butoxy)carbonylamino]butanoyl}azetidin-2-yl)methyl](5-fluoro-2-{[2-(3-fluorophenyl)ethyl]amino}-6-(1-methylpyrazol-4-yl)(3-pyridyl))carboxamide]	122
Cc1cc(C(=O)NC[C@H]2CCC(=O)N2CCCNC(=O)OC(C)(C)C)c(NCCc2cccc(F)c2)nc1-c1cnn(C)c1 [N-[((2R)-1-{3-[(tert-butoxy)carbonylamino]propyl}-5-oxopyrrolidin-2-yl)methyl](2-{[2-(3-fluorophenyl)ethyl]amino}-5-methyl-6-(1-methylpyrazol-4-yl)(3-pyridyl))carboxamide]	1460
CN(CCNC(=O)CNC(=O)c1ccc(-c2ccccc2C#N)nc1NCCc1cccc(F)c1)C(=O)OC(C)(C)C [N-{2-[(tert-butoxy)-N-methylcarbonylamino]ethyl}-2-[(6-(2-cyanophenyl)-2-{[2-(3-fluorophenyl)ethyl]amino}(3-pyridyl))carbonylamino]acetamide]	65500
